The values below come from ChEMBL document CHEMBL5715260, “Selectivity Literature for EUbOPEN Chemogenomic Library” (2024).

What all share (set-up): recommended concentration 1 uM
Test [1] deals with T1, Hepatocyte nuclear factor 4-alpha (Homo sapiens) (UniProt P41235).
T1 sequence (whole entry): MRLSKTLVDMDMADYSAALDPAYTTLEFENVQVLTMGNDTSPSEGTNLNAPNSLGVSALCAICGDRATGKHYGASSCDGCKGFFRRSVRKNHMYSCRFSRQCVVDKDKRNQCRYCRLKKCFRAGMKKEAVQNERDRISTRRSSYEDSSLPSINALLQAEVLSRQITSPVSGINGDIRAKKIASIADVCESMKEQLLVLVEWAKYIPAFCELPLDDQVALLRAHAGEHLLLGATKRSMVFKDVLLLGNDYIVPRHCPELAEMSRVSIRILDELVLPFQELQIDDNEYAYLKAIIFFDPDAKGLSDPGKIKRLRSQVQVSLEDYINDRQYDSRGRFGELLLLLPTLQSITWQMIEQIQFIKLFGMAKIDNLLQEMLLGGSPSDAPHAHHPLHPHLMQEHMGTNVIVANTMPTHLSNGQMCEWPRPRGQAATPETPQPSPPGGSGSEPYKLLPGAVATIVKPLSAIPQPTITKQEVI
The experiment in a line: Selectivity interaction (Reporter gene assay) EUB0000563a HNF4A.

Test [2] concerns the target T2, Nuclear receptor subfamily 2 group C member 1 (Homo sapiens) (UniProt P13056).
T2 sequence (whole entry): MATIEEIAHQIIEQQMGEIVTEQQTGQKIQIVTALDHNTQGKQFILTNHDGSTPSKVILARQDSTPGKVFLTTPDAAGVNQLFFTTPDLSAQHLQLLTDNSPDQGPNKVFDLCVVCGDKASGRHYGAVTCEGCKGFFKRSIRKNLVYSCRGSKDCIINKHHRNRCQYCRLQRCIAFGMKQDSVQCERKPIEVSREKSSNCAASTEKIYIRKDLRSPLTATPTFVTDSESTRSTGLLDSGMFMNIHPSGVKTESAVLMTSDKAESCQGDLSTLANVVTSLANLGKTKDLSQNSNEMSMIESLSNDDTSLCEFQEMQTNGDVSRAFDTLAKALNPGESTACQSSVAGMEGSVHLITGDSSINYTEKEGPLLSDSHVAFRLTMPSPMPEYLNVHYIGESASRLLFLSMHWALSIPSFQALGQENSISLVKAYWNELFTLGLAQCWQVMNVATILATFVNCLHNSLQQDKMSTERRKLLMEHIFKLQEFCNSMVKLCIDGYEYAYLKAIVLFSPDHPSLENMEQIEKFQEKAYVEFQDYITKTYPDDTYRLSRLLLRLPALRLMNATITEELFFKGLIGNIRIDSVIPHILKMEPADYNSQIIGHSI
The experiment in a line: Selectivity interaction (Reporter gene assay) EUB0000563a NR2C1. (In a reporter assay the amount or activity of a reporter protein is the signal.)

For test [3], the target named is Nuclear receptor subfamily 2 group E member 1 (Homo sapiens) (UniProt Q9Y466). Kind of test: Selectivity interaction (Reporter gene assay) EUB0000563a NR2E1.
The target of test [4] is Nuclear receptor subfamily 4immunitygroup A member 1 (Homo sapiens) (UniProt P22736). The experiment in a line: Selectivity interaction (Reporter gene assay) EUB0000563a NR4A1.
Test [5] addresses Steroidogenic factor 1 (Homo sapiens) (UniProt Q13285). The experiment in a line: Selectivity interaction (Reporter gene assay) EUB0000563a NR5A1.
For test [6], the target named is T3, Alpha trans-inducing protein (Human alphaherpesvirus 1) (UniProt A0A5J6DW59). Kind of test: Selectivity interaction (Reporter gene assay) EUB0000563a UL48.
The target in test [7] is T4, Retinoic acid receptor RXR-alpha (Homo sapiens) (UniProt P19793).
T4 sequence (whole entry): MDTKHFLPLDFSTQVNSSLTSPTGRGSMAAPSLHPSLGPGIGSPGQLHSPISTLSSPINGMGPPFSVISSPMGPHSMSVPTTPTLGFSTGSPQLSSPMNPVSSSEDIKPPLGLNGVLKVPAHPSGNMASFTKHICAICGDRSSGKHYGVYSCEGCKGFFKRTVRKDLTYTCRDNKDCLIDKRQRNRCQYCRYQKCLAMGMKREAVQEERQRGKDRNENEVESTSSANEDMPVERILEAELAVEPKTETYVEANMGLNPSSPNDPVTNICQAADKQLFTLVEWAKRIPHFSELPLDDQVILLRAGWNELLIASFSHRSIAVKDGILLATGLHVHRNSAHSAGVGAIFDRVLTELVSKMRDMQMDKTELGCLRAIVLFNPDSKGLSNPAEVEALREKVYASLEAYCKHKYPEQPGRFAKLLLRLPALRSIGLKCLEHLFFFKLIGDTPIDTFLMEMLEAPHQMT
Kind of test: Selectivity interaction (Reporter gene assay) EUB0000563a RXRA. The settings on record: reference bexarotene 1 uM, Selectivity number of off-targets 0.0, Selectivity number of targets 1.0, Source Knowledge inhouse.

The target of test [8] is T1, Hepatocyte nuclear factor 4-alpha (Homo sapiens). Kind of test: Selectivity interaction (Reporter gene assay) EUB0000564a HNF4A.
The target in test [9] is T2, Nuclear receptor subfamily 2 group C member 1 (Homo sapiens). The experiment in a line: Selectivity interaction (Reporter gene assay) EUB0000564a NR2C1.
The target of test [10] is Nuclear receptor subfamily 2 group E member 1 (Homo sapiens) (UniProt Q9Y466). The experiment in a line: Selectivity interaction (Reporter gene assay) EUB0000564a NR2E1.
The target of test [11] is Nuclear receptor subfamily 4immunitygroup A member 1 (Homo sapiens) (UniProt P22736). The experiment in a line: Selectivity interaction (Reporter gene assay) EUB0000564a NR4A1.
The target in test [12] is Steroidogenic factor 1 (Homo sapiens) (UniProt Q13285). The experiment in a line: Selectivity interaction (Reporter gene assay) EUB0000564a NR5A1.
In test [13] the target is T3, Alpha trans-inducing protein (Human alphaherpesvirus 1). Kind of test: Selectivity interaction (Reporter gene assay) EUB0000564a UL48.
Test [14] addresses T4, Retinoic acid receptor RXR-alpha (Homo sapiens). The experiment in a line: Selectivity interaction (Reporter gene assay) EUB0000564a RXRA. Conditions: reference bexarotene 1 uM, Selectivity number of off-targets 0.0, Selectivity number of targets 1.0, Source Knowledge inhouse.
Test [15] has as its target T1, Hepatocyte nuclear factor 4-alpha (Homo sapiens). Kind of test: Selectivity interaction (Reporter gene assay) EUB0000567a HNF4A.
For test [16], the target named is T2, Nuclear receptor subfamily 2 group C member 1 (Homo sapiens). The experiment in a line: Selectivity interaction (Reporter gene assay) EUB0000567a NR2C1.
For test [17], the target named is Nuclear receptor subfamily 2 group E member 1 (Homo sapiens) (UniProt Q9Y466). Kind of test: Selectivity interaction (Reporter gene assay) EUB0000567a NR2E1.
In test [18] the target is Nuclear receptor subfamily 4immunitygroup A member 1 (Homo sapiens) (UniProt P22736). The experiment in a line: Selectivity interaction (Reporter gene assay) EUB0000567a NR4A1.
In test [19] the target is Steroidogenic factor 1 (Homo sapiens) (UniProt Q13285). The experiment in a line: Selectivity interaction (Reporter gene assay) EUB0000567a NR5A1.
Test [20] concerns the target T3, Alpha trans-inducing protein (Human alphaherpesvirus 1). Kind of test: Selectivity interaction (Reporter gene assay) EUB0000567a UL48.
The target in test [21] is T4, Retinoic acid receptor RXR-alpha (Homo sapiens). Kind of test: Selectivity interaction (Reporter gene assay) EUB0000567a RXRA.
The target in test [22] is T1, Hepatocyte nuclear factor 4-alpha (Homo sapiens). Kind of test: Selectivity interaction (Reporter gene assay) EUB0000566a HNF4A.
The target in test [23] is T2, Nuclear receptor subfamily 2 group C member 1 (Homo sapiens). Kind of test: Selectivity interaction (Reporter gene assay) EUB0000566a NR2C1.
Test [24] has as its target Nuclear receptor subfamily 2 group E member 1 (Homo sapiens) (UniProt Q9Y466). Kind of test: Selectivity interaction (Reporter gene assay) EUB0000566a NR2E1.
Test [25] addresses Nuclear receptor subfamily 4immunitygroup A member 1 (Homo sapiens) (UniProt P22736). Kind of test: Selectivity interaction (Reporter gene assay) EUB0000566a NR4A1.
For test [26], the target named is Steroidogenic factor 1 (Homo sapiens) (UniProt Q13285). Kind of test: Selectivity interaction (Reporter gene assay) EUB0000566a NR5A1.
Test [27] concerns the target T3, Alpha trans-inducing protein (Human alphaherpesvirus 1). Kind of test: Selectivity interaction (Reporter gene assay) EUB0000566a UL48.
Test [28] concerns the target T4, Retinoic acid receptor RXR-alpha (Homo sapiens). The experiment in a line: Selectivity interaction (Reporter gene assay) EUB0000566a RXRA.

Nuclear receptor subfamily 2 group E member 1 (Homo sapiens), sequence (Q9Y466 whole entry): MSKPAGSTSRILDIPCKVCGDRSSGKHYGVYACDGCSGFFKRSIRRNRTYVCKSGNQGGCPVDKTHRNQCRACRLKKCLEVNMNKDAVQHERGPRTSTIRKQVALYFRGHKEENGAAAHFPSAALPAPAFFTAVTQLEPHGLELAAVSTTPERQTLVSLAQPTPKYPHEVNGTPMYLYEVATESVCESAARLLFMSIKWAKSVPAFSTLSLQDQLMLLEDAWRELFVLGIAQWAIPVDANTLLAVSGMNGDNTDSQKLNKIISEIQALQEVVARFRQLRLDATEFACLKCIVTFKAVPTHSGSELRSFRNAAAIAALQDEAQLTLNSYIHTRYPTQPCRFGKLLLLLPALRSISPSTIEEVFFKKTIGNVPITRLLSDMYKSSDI
T3 sequence (A0A5J6DW59 as listed by the source): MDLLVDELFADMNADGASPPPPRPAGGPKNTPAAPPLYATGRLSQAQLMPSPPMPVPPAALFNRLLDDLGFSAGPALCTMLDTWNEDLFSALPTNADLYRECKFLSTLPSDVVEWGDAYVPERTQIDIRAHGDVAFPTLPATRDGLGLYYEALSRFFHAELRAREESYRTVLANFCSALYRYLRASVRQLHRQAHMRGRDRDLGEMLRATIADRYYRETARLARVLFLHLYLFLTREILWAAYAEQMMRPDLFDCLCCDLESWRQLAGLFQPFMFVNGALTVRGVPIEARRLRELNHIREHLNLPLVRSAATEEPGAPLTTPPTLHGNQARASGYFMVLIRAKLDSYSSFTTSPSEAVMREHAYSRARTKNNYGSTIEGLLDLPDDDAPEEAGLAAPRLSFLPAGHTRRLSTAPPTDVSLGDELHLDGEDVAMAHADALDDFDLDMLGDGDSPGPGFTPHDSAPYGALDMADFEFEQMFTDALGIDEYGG
Nuclear receptor subfamily 4immunitygroup A member 1 (Homo sapiens), sequence (P22736 whole entry): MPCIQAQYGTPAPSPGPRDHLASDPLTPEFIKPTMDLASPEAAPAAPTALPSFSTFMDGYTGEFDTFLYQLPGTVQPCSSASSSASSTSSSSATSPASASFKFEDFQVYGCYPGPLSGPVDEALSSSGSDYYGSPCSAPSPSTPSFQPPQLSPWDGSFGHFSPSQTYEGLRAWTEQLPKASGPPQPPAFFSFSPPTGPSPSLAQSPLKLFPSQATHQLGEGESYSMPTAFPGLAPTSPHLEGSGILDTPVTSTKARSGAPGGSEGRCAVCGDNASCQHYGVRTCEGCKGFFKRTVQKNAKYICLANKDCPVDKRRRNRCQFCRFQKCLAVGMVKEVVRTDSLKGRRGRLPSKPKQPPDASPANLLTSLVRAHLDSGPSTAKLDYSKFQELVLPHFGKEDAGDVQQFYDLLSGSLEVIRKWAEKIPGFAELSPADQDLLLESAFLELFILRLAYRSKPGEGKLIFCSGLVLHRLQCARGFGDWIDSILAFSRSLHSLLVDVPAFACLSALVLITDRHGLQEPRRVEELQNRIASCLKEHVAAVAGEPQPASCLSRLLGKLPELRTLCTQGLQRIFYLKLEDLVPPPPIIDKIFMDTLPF
Steroidogenic factor 1 (Homo sapiens), sequence (Q13285 whole entry): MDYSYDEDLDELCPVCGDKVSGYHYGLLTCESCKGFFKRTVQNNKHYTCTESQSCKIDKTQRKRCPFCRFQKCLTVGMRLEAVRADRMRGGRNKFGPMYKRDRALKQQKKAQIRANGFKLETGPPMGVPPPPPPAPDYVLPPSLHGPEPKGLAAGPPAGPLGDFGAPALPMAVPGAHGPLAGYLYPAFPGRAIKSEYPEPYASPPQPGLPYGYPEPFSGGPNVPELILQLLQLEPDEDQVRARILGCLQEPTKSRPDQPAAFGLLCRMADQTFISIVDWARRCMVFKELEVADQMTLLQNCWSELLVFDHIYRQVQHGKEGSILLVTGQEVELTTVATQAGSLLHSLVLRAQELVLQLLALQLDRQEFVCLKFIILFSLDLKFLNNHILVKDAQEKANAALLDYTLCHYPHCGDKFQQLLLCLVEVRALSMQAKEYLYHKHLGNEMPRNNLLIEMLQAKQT

For `CCOC(=O)c1ccc(C#Cc2ccc3c(c2)C(C)(C)CCS3)nc1`, the Remaining activity in test [1] amounted to 0.921; in [2] it was 0.92; in [3], 0.703; in [4], 0.9; in [5], 0.803. The compound further returned a P-value in [6] of 0.00141. Also, in test [7], the Relative activation worked out at 0.694%.
Regarding `COc1ccc(-c2ccc3cc(C(=O)O)ccc3c2)cc1C12CC3CC(CC(C3)C1)C2`, the figures for the Fold activation in test [8], in [9] and in test [11] were 1, 1.03 and 1.11, respectively. In addition, the figures for the Remaining activity in test [10] and in test [12] were 0.926 and 0.896, respectively. The same compound displayed a P-value in test [13] of 0.00282. The compound also showed a Relative activation in test [14] of 0.848%.
For the compound `CC1(C)CCC(C)(C)c2cc(C(=O)Nc3ccc(C(=O)O)cc3)ccc21`, the Fold activation in test [15] stood at 1.07; in test [18] it was 1.04. For the same compound, the Remaining activity in test [16] came out at 0.976; in test [17], 0.642; in [19], 0.908. In test [20], this compound showed a P-value of 0.0055. Besides, the Relative activation in test [21] came out at 0.898%.
Turning to `CC1(C)CCC(C)(C)c2cc(NC(=O)c3ccc(C(=O)O)cc3)ccc21`, the figures for the Fold activation in test [22] and in test [25] were 0.997 and 1.31, respectively. In addition, the Remaining activity in test [23] came out at 0.903; in test [24] it was 0.763; in test [26], 0.902. This compound displayed a P-value in test [27] of 2.26e-06. This compound also yielded a Relative activation in test [28] of 0.52%.
